Patent US20250276036A1, “COMPOSITION FOR THE INHIBITION OF NRF2 AND USES THEREOF IN CANCER THERAPY” (Sunshine Biopharma Inc., priority 2022, published 2025)

How the values were obtained:
[1] = tested on: Human Mammary Epithelial Cells (HMEC); assay: Cell viability (CellTiter-Glo) after mRNA transfection, HMEC; assay type: cell-based; settings: HMEC, 0, 3 and 9 ng mRNA per 1000 cells, 48 hours transfection
Procedure: (§1) The synthetic mRNA produced in Example 1 is transfected in cancer cells using the Lipofectamine MessengerMAX™ Transfection Reagent.
(§2) Human Mammary Epithelial Cells (HMEC), which are non-cancer cells were compared to MCF7 cancer cells. The HMEC cells and MCF7 cancer cells were transfected for 48 hours with 0, 0.3, 1, 3 and 9 ng of KEAP1 mRNA, or a control cLUC mRNA, per 1000 cells and their respective survival were compared. The cells viability was measured using the CellTiter-Glo® assay from Promega®. […] Now referring to FIG. 4, cell viability of MCF7 cells was affected by KEAP1 mRNA, but the viability of the HMEC cells was unaffected by KEAP1 mRNA.

[2] = tested on: MCF7 human breast adenocarcinoma cell line; assay: Cell viability (CellTiter-Glo) after mRNA transfection, MCF7; assay type: cell-based
Procedure: (§3) The goal of these experiments is to evaluate the transfectability of various cell lines, as well as evaluate the role of KEAP1 as a tumor cells sensitizer, evaluate its role in decreasing the viability of tumor cells. The synthetic mRNA produced in Example 1, or the cLUC mRNA are transfected in cancer cells using the Lipofectamine MessengerMAX™ Transfection Reagent, ThermoFisher™, Cat No: LMRNA001. 0, 0.3, 1, 3 or 9 ng of either mRNA is used per 1000 cells.
(§4) MCF7 and MCF7/MDR human breast adenocarcinoma cell lines are transfected for 48 hours with 0, 0.3, 1, 3 and 9 ng of KEAP1 mRNA, or with 0, 0.3, 1, 3 and 9 ng of a control Cypridina luciferase (cLUC) (SEQ ID NO: 10) mRNA. The cells viability was measured using the CellTiter-Glo® assay from Promega®. KEAP1 mRNA specific effects on MCF7 and MCF7/MDR cells survival were observed when cells were transfected with 0, 0.3, 1, 3 and 9 ng of KEAP1 mRNA.
(§5) MCF7 and MCF7/MDR human breast adenocarcinoma cell lines are transfected for 48 hours with 0, 1 and 3 ng of KEAP1 mRNA, or with 0, 1 and 3 ng of a control Cypridina luciferase (cLUC) mRNA, per 1000 cells. The cells viability was measured using the CellTiter-Glo® assay from Promega®. In-cell Western analysis is used to detect the presence of KEAP1.
as §2

[3] = tested on: OVCAR3 epithelial cells; assay: Cell viability (CellTiter-Glo) after mRNA transfection, OVCAR3; assay type: cell-based, human
Procedure: as §1
(§6) OVCAR3 epithelial cells isolated from malignant ascites of a patient with progressive adenocarcinoma of the ovary, and SUIT2 human pancreatic cancer cell lines are transfected for […] with 0, 0.3, 1, 3 and 9 ng of KEAP1 mRNA, or with 0, 0.3, 1, 3 and 9 ng of a control Cypridina luciferase (cLUC)(SEQ ID NO: 10) mRNA, per 1000 cells. The cells viability was measured using the CellTiter-Glo® assay from Promega®. In-cell Western analysis is used to detect the presence of KEAP1.

[4] = tested on: MCF7/MDR human breast adenocarcinoma cell line; assay: Cell viability (CellTiter-Glo) after mRNA transfection, MCF7/MDR; assay type: cell-based; settings: for % Cell survival: MCF7/MDR, 48 hours transfection (Example 3)
Procedure: as §3, §4, §5

[5] = tested on: SUIT2 human pancreatic cancer cell line; assay: Cell viability (CellTiter-Glo) after mRNA transfection, SUIT2; assay type: cell-based; settings: SUIT2, 0, 3 and 9 ng mRNA per 1000 cells
Procedure: as §1, §6

For “cLUC mRNA: control Cypridina luciferase (cLUC) (SEQ ID NO: 10) mRNA”, the “% Cell survival” value [1] was “Resistant”, the “effect on cell survival / viability” value ([2]; MCF7, 0, 0.3, 1, 3 and 9 ng mRNA per 1000 cells, 48 hours (FIG. 2)) was “little effect on cell survival unless a large amount of 9 ng was transfected” and the “% Cell survival” value ([2]; MCF7, 1 ng mRNA per 1000 cells, 48 hours transfection (Example 3)) was 100%. For the same substance, the “% Cell survival” value ([2]; MCF7, 3 ng mRNA per 1000 cells, 48 hours transfection (Example 3)) was 55%, the “% Cell survival” value ([2]; MCF7, 3 ng mRNA per 1000 cells, 48 hours transfection (Example 4, Table 2)) was 100% and the “% Cell survival” value ([2]; MCF7, 9 ng mRNA per 1000 cells, 48 hours transfection (Example 4, Table 2)) was 55%. The “% Cell survival” value ([3]; OVCAR3, 3 ng mRNA per 1000 cells) was 90%, the “% Cell survival” value ([3]; OVCAR3, 9 ng mRNA per 1000 cells) was 80% and the “effect on cell survival / viability” value ([4]; MCF7/MDR, 0, 0.3, 1, 3 and 9 ng mRNA per 1000 cells, 48 hours (FIG. 2)) was “little effect on cell survival unless a large amount of 9 ng was transfected”. The “% Cell survival” value ([4]; 1 ng mRNA per 1000 cells) was 100%, the “% Cell survival” value ([4]; 3 ng mRNA per 1000 cells) was 55% and the “% Cell survival” value [5] was “Resistant”.
